In PMC6199744, “Development of Chemical Proteomics for the Folateome and Analysis of the Kinetoplastid Folateome” (ACS Infectious Diseases, 2018):
Where two headings read alike, the source gives them in different places.

Columns and labels:
Type in all cases: binding
[1] = target: T1, HeLa cell extract proteins (Homo sapiens, UniProt P52888)
T1 construct: endogenous in cells; host or cells: HeLa cell extract

[2] = target: T2, HeLa cell extract proteins (Homo sapiens, UniProt Q9Y6G9)
T2 construct: endogenous in cells; host or cells: HeLa cell extract
T2 sequence (Q9Y6G9 whole entry): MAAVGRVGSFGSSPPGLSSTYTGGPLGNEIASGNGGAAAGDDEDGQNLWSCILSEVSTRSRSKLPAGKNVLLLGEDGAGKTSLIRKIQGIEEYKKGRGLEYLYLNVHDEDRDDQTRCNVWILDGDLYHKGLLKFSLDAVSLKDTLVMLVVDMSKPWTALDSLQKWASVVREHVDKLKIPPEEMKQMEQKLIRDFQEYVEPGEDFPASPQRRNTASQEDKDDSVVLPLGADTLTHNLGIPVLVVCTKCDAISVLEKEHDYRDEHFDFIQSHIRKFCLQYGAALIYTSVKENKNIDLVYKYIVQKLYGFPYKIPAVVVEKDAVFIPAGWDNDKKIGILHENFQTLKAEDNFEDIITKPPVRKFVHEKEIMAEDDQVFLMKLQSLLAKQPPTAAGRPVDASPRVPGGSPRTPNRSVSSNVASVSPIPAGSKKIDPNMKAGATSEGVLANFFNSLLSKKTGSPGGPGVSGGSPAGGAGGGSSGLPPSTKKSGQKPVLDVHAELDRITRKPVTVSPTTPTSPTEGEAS

[3] = target: T3, HeLa cell extract proteins (Homo sapiens, UniProt Q13616)
T3 construct: endogenous in cells; host or cells: HeLa cell extract
T3 sequence (Q13616 whole entry): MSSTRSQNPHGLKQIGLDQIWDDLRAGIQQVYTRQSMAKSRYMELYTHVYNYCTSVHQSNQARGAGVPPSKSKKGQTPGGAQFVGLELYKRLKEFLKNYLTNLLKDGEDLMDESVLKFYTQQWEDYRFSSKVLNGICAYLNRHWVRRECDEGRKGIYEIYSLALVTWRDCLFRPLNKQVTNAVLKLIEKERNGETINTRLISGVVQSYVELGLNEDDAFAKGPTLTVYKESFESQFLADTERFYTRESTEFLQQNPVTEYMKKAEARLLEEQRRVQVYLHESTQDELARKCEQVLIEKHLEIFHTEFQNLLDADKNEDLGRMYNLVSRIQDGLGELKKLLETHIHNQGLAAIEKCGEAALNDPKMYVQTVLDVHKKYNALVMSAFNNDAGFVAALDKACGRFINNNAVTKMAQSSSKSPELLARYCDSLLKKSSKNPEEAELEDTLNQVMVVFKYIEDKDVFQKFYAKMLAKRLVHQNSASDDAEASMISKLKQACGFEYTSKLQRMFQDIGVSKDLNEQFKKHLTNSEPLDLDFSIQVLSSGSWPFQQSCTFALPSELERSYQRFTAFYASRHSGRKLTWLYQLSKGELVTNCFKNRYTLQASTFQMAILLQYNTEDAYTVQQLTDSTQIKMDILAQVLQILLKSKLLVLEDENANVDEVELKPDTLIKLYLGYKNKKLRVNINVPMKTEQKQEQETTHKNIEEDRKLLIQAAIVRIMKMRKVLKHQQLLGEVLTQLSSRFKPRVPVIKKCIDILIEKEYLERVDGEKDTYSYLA

[4] = target: T4, HeLa cell extract proteins (Homo sapiens, UniProt Q14157)
T4 construct: endogenous in cells; host or cells: HeLa cell extract
T4 sequence (Q14157 1-1087): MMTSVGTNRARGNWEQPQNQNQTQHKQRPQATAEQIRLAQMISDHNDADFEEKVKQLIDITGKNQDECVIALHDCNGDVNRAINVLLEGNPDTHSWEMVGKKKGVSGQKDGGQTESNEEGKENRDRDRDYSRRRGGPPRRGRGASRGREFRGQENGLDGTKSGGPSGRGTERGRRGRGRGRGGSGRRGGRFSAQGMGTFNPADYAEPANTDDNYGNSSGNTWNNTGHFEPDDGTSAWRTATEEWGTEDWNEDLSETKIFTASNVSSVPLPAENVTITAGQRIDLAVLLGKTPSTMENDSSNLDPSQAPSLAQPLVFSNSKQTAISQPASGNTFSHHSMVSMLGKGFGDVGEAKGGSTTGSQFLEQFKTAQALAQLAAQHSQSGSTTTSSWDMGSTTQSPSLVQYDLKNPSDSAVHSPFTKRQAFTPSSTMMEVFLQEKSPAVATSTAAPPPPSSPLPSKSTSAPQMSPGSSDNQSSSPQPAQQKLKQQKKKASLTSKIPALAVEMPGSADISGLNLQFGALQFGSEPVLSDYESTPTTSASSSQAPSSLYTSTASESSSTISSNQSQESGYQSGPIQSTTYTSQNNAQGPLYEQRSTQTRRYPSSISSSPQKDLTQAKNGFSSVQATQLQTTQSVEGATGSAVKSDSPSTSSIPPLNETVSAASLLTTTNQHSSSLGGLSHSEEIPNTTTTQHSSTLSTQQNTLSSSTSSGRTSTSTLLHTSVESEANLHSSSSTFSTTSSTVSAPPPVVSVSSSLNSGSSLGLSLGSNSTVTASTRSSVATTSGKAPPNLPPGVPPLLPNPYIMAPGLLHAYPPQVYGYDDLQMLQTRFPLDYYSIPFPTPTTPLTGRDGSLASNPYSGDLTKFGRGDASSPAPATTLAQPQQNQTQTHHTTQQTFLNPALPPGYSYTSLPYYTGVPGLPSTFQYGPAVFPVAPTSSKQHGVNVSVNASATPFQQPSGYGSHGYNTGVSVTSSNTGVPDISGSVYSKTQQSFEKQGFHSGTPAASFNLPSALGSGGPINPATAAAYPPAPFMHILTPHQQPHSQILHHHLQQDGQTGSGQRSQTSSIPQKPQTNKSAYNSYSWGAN

[5] = target: T5, HeLa cell extract proteins (Homo sapiens, UniProt O75533)
T5 construct: endogenous in cells; host or cells: HeLa cell extract
T5 sequence (O75533 whole entry): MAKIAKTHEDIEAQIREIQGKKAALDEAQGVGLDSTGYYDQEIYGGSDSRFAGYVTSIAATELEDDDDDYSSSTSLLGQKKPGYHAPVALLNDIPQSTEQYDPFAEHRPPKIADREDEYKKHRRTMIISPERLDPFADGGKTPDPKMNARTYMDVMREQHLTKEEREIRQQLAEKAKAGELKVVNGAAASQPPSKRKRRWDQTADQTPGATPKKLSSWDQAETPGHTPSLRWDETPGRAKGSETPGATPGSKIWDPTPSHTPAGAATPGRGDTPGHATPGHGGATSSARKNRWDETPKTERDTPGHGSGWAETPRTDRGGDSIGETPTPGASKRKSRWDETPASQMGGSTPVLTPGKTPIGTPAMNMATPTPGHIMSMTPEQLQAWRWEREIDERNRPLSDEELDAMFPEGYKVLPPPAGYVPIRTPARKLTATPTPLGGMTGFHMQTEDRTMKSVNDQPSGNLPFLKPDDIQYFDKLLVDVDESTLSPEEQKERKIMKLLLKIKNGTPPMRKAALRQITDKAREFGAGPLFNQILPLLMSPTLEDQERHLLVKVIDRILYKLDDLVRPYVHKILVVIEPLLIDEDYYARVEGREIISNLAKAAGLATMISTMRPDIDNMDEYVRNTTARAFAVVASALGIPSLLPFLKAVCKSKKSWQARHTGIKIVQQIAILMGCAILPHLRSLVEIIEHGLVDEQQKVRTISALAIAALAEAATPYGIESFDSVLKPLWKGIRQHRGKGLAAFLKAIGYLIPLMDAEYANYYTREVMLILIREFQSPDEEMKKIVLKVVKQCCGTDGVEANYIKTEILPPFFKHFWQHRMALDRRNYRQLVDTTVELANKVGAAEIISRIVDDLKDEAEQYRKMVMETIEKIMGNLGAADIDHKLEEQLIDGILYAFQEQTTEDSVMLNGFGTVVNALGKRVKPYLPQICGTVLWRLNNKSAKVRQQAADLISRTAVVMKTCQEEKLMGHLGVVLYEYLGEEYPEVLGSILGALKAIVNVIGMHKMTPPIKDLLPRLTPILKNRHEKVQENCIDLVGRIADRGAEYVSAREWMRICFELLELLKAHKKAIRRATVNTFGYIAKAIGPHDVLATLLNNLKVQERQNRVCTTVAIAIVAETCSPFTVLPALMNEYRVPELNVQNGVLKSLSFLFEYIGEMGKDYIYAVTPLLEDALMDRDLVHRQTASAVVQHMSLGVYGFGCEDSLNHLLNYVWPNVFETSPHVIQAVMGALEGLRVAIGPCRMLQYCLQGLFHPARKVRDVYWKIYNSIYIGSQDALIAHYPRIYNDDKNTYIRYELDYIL

[6] = target: T6, HeLa cell extract proteins (Homo sapiens, UniProt P35613)
T6 construct: endogenous in cells; host or cells: HeLa cell extract
T6 sequence (P35613 22-385): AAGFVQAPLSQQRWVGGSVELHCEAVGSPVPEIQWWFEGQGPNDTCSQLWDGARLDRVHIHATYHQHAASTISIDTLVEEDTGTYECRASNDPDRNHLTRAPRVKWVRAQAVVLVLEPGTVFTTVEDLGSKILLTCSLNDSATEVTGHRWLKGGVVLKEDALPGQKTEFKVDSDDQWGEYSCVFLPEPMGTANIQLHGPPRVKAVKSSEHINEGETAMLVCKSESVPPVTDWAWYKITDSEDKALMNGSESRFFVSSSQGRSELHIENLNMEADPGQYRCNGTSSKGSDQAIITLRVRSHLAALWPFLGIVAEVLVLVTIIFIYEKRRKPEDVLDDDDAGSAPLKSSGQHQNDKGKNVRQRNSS

[7] = target: T7, HeLa cell extract proteins (Homo sapiens, UniProt P53597)
T7 construct: endogenous in cells; host or cells: HeLa cell extract
T7 sequence (P53597 41-346): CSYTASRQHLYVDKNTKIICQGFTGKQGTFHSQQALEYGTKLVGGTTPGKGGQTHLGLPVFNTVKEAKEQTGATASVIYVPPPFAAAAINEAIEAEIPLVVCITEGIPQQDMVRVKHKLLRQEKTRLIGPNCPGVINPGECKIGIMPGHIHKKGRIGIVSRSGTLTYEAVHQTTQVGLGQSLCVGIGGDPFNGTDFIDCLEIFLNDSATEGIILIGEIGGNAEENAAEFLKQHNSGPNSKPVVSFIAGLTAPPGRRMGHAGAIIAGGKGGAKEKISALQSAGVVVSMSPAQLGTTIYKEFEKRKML

[8] = target: T8, HeLa cell extract proteins (Homo sapiens, UniProt Q9BTT0)
T8 construct: endogenous in cells; host or cells: HeLa cell extract
T8 sequence (Q9BTT0 whole entry): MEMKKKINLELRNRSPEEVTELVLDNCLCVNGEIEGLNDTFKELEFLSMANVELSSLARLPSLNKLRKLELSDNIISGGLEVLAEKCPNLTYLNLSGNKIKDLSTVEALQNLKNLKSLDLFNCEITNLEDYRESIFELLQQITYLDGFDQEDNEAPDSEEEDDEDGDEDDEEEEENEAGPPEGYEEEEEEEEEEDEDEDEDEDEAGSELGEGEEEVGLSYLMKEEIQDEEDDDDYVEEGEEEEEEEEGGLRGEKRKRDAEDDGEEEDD

[9] = target: T9, HeLa cell extract proteins (Homo sapiens, UniProt Q5XKP0); details: captured protein C19ORF70; HeLa
T9 construct: endogenous in cells; host or cells: HeLa cell extract
T9 sequence (Q5XKP0 1-118): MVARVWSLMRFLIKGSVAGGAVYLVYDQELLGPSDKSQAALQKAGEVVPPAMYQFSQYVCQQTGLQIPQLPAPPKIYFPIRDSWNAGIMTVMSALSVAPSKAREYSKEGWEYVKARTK

[10] = target: T10, HeLa cell extract proteins (Homo sapiens, UniProt P35237); details: protein SERPINB6; HeLa
T10 construct: endogenous in cells; host or cells: HeLa cell extract
T10 sequence (P35237 1-376): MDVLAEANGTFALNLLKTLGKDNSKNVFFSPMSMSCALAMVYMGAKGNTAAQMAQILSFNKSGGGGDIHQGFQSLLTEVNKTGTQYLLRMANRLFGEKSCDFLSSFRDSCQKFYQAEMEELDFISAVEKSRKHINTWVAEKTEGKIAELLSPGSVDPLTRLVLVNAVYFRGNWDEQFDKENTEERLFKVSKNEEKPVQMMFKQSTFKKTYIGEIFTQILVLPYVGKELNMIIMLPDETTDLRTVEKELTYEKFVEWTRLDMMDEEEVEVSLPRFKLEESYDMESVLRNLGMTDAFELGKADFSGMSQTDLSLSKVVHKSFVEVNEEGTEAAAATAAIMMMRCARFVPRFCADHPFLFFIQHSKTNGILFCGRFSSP

[11] = target: T11, HeLa cell extract proteins (Homo sapiens, UniProt Q15233); details: protein NONO; HeLa
T11 construct: endogenous in cells; host or cells: HeLa cell extract
T11 sequence (Q15233 1-471): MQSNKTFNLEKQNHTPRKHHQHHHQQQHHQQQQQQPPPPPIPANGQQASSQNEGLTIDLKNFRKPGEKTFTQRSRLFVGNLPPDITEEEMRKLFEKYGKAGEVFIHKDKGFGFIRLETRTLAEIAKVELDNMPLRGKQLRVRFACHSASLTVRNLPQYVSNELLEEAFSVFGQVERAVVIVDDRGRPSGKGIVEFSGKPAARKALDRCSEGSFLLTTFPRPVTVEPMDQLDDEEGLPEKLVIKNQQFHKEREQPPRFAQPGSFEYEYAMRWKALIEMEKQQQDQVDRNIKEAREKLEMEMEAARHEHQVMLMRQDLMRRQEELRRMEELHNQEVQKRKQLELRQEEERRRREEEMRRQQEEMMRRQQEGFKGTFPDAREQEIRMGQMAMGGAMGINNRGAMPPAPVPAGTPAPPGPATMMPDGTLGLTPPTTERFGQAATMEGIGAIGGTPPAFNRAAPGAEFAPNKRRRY

T1 sequence (P52888 whole entry): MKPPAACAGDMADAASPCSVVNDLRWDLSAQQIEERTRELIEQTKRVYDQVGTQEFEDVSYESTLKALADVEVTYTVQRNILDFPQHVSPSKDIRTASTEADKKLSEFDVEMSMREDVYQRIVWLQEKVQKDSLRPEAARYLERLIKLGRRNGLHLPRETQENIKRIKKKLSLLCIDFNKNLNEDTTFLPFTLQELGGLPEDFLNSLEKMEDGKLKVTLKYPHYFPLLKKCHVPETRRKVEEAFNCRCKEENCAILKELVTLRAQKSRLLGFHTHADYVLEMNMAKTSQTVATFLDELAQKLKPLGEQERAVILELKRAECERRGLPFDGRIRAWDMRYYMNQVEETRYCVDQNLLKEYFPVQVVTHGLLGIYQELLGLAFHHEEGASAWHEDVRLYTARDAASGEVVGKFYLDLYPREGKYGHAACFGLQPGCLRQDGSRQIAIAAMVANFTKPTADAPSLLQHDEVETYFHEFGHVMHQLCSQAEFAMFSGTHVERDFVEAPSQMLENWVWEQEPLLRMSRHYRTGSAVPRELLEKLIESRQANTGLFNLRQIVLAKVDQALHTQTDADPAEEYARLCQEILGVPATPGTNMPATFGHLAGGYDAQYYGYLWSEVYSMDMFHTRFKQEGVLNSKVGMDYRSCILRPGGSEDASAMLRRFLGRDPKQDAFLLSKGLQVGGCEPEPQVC

SMILES | fold changes relative to vehicle control ([1]; protein THOP1, HeLa) | fold changes relative to vehicle control ([2]; HeLa, protein DYNC1LI1) | fold changes relative to vehicle control ([3]; HeLa, protein CUL1) | fold changes relative to vehicle control ([4]; HeLa, protein UBAP2L) | fold changes relative to vehicle control ([5]; HeLa, protein SF3B1) | fold changes relative to vehicle control ([6]; protein BSG, HeLa) | fold changes relative to vehicle control ([7]; protein SUCLG1, HeLa) | fold changes relative to vehicle control ([8]; HeLa, protein ANP32E) | fold changes relative to vehicle control [9] | fold changes relative to vehicle control [10] | fold changes relative to vehicle control [11] | also measured
Nc1nc2c(c(=O)[nH]1)N(C=O)C(CNc1ccc(C(=O)N[C@@H](CCC(=O)O)C(=O)O)cc1)CN2 (some centres unmarked) [LEU, leucovorin] | 0.87 | 0.9 | 0.98 | 0.9 | 1.02 | 0.87 | 0.95 | 0.89 | – | – | – | –
Nc1nc2[nH]cc(CCc3ccc(C(=O)N[C@@H](CCC(=O)O)C(=O)O)cc3)c2c(=O)[nH]1 [PTX, pemetrexed] | – | – | – | – | – | – | – | – | – | – | – | fold changes relative to vehicle control [1]: 0.95; fold changes relative to vehicle control [2]: 0.81; fold changes relative to vehicle control [3]: 1.03; fold changes relative to vehicle control [4]: 0.98; fold changes relative to vehicle control [5]: 1.1; fold changes relative to vehicle control [6]: 0.88; fold changes relative to vehicle control [7]: 1.09; fold changes relative to vehicle control [8]: 0.76
CCCCCCOc1ccc(Cc2cnc(N)nc2N)cc1 [compound 1] | – | – | – | – | – | – | – | – | 1.16 | 1.14 | 0.97 | –
CCCCCCOc1cccc(Cc2cnc(N)nc2N)c1 [compound 2] | – | – | – | – | – | – | – | – | 1.14 | 1.61 | 1.67 | –
Nc1nc2cccc(-c3ccccc3)c2n1Cc1ccc(Cl)c(Cl)c1 [compound 3] | – | – | – | – | – | – | – | – | 1.13 | 0.92 | 0.92 | –
NCCOCCOCC(=O)Nc1nc2ncc(CNc3ccc(C(=O)NC(CCC(=O)O)C(=O)O)cc3)nc2c(=O)[nH]1 (centres unmarked) [compound 6] | 1.16 | 0.9 | 1.22 | 1.1 | 1.16 | 1.02 | 1.3 | 0.91 | – | – | – | –
NCCCNc1ccc(C(=O)NC(CCC(=O)O)C(=O)O)cc1 (centres unmarked) [compound 7] | 0.83 | 0.88 | 1.02 | 1.08 | 1.07 | 0.8 | 0.81 | 0.72 | – | – | – | –
